The test system of assay [1] is AMO-1 human multiple myeloma tumor cell line. Description: AMO-1 cell viability assay (CellTiter-Glo, 24 hours). The assay is classed as cell-based. The settings on record: Homo sapiens, AMO1, 24 h, read-out: AMO-1 Viability IC50 (μM, 10% FBS), 10% FBS, 24 hours of compound treatment. Background: In ATP-based viability assays light output follows the ATP content of the culture.

Assay [2] deals with GST-MCL-1 (Homo sapiens, UniProt Q07820). Kind of assay: TR-FRET MCL-1 binding assay (competition with probe F-Bak). Put shortly: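 Displacement of F-Bak from GST-MCL-1 is detected by time-resolved FRET with a Tb-labelled anti-GST antibody, with excitation 340/35 nm and emission 520/525 and 495/510 nm, after 2 hours at room temperature. Compounds were titrated in 11 three-fold steps starting at 25 μM final, in buffer alone or in 10% HS.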
GST-MCL-1, sequence (Q07820 whole entry): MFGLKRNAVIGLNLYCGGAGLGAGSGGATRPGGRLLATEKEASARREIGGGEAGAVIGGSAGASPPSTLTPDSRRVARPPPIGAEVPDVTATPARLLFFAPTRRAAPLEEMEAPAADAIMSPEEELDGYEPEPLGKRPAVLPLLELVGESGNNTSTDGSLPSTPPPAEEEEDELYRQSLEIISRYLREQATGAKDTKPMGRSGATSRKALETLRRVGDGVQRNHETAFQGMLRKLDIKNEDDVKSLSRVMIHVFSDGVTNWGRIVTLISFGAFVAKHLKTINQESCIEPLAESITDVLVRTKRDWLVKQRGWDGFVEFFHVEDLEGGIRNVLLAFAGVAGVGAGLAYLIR
For orientation: TR-FRET usually uses a lanthanide donor and a delayed reading to cut background.

Assay [3] concerns NCI-H929 human multiple myeloma tumor cell line. Description: NCI-H929 cell viability assay (CellTiter-Glo, 24 hours). The assay is classed as cell-based. The settings on record: Homo sapiens, NCI-H929, 24 h, read-out: H929 Viability IC50 (μM, 10% FBS), 10% FBS, 24 hours of compound treatment.
Where [4] appears, read: MCL-1 Binding Ki (nM, 10% HS), in the presence of 10% HS (human serum).
Where [5] appears, read: without HS, read-out: MCL-1 Binding Ki.

A word on the IC50: it is the concentration that inhibits the measured activity by half. As usually defined, the Ki is a measure of affinity in units of concentration, obtained from inhibition or displacement.

Like-named read-outs stand apart in the source and are kept apart here.

In the case of `Cc1c(Cl)c2c(Cl)c(C)c1-c1c(-c3ccc(F)cc3)sc3ncnc(c13)O[C@@H](C(=O)O)Cc1cc(ccc1OCc1ccnc([C@@]3(O)CCCC[C@@H]3O)n1)OC[C@@H](CN1CCN(C)CC1)O2` [Example 38, (7R,16R)-19,23-dichloro-10-({2-[(1S,2S)-1,2-dihydroxycyclohexyl]pyrimidin-4-yl}methoxy)-1-(4-fluorophenyl)-20,22-dimethyl-16-[(4-methylpiperazin-1-yl)methyl]-7,8,15,16-tetrahydro-18,21-etheno-9,13-(metheno)-6,14,17-trioxa-2-thia-3,5-diazacyclononadeca[1,2,3-cd]indene-7-carboxylic Acid], the IC50 amounted to 0.00236 µM in assay [1] and 0.00577 µM in assay [3]. Besides, the figures for the inhibition constant Ki in assay [2] (setting [4]) and in assay [2] (setting [5]) were 0.416 nM and 0.106 nM, respectively.

As for `Cc1c(Cl)c2c(Cl)c(C)c1-c1c(-c3ccc(F)cc3)sc3ncnc(c13)O[C@@H](C(=O)O)Cc1cc(ccc1OCc1ccnc([C@]3(O)CCCC[C@H]3O)n1)OC[C@@H](CN1CCN(C)CC1)O2` [Example 39, (7R,16R)-19,23-dichloro-10-({2-[(1R,2R)-1,2-dihydroxycyclohexyl]pyrimidin-4-yl}methoxy)-1-(4-fluorophenyl)-20,22-dimethyl-16-[(4-methylpiperazin-1-yl)methyl]-7,8,15,16-tetrahydro-18,21-etheno-9,13-(metheno)-6,14,17-trioxa-2-thia-3,5-diazacyclononadeca[1,2,3-cd]indene-7-carboxylic Acid], the IC50 in assay [1] was found to be 0.00119 µM; in assay [3], 0.00353 µM. The results for the inhibition constant Ki in assay [2] (setting [4]) and in assay [2] (setting [5]) were 0.193 nM and 0.042 nM, respectively.

`Cc1c(Cl)c2c(Cl)c(C)c1-c1c(-c3ccc(F)cc3)sc3ncnc(c13)O[C@@H](C(=O)O)Cc1cc(ccc1OCc1ccnc(C3CCS(=O)(=O)CC3)n1)OC[C@@H](CN1CCN(C)CC1)O2` [Example 40, (7R,16R)-19,23-dichloro-10-{[2-(1,1-dioxo-1λ^6-thian-4-yl)pyrimidin-4-yl]methoxy}-1-(4-fluorophenyl)-20,22-dimethyl-16-[(4-methylpiperazin-1-yl)methyl]-7,8,15,16-tetrahydro-18,21-etheno-13,9-(metheno)-6,14,17-trioxa-2-thia-3,5-diazacyclononadeca[1,2,3-cd]indene-7-carboxylic Acid]: the IC50 in assay [1] amounted to 0.003 µM; in assay [3] it was 0.00474 µM. The results for the inhibition constant (Ki) in assay [2] (setting [4]) and in assay [2] (setting [5]) were 0.085 nM and 0.018 nM, respectively.

On to `Cc1c(Cl)c2c(Cl)c(C)c1-c1c(-c3ccc(F)cc3)sc3ncnc(c13)O[C@@H](C(=O)O)Cc1cc(ccc1OCc1ccnc(N3CCC(C)(CC(=O)O)CC3)n1)OC[C@@H](CN1CCN(C)CC1)O2` [Example 41, (7R,16R)-10-({2-[4-(carboxymethyl)-4-methylpiperidin-1-yl]pyrimidin-4-yl}methoxy)-19,23-dichloro-1-(4-fluorophenyl)-20,22-dimethyl-16-[(4-methylpiperazin-1-yl)methyl]-7,8,15,16-tetrahydro-18,21-etheno-13,9-(metheno)-6,14,17-trioxa-2-thia-3,5-diazacyclononadeca[1,2,3-cd]indene-7-carboxylic Acid], for which the IC50 in assay [1] is 0.0159 µM; in assay [3], 0.019 µM. Moreover, the Ki in assay [2] (setting [4]) worked out at 1.05 nM; in assay [2] (setting [5]) it was 0.078 nM.

Regarding `Cc1c(Cl)c2c(Cl)c(C)c1-c1c(-c3ccc(F)cc3)sc3ncnc(c13)O[C@@H](C(=O)O)Cc1cc(ccc1OCc1ccnc(N3CC4(COC4)C3)n1)OC[C@@H](CN1CCN(C)CC1)O2` [Example 42, (7R,16R)-19,23-dichloro-1-(4-fluorophenyl)-20,22-dimethyl-16-[(4-methylpiperazin-1-yl)methyl]-10-{[2-(2-oxa-6-azaspiro[3.3]heptan-6-yl)pyrimidin-4-yl]methoxy}-7,8,15,16-tetrahydro-18,21-etheno-9,13-(metheno)-6,14,17-trioxa-2-thia-3,5-diazacyclononadeca[1,2,3-cd]indene-7-carboxylic Acid], the IC50 in assay [1] worked out at 0.0011 µM; in assay [3] it was 0.00314 µM. For the same molecule, the inhibition constant (Ki) in assay [2] (setting [4]) was 0.747 nM; in assay [2] (setting [5]), 0.085 nM.
